Some results are limits rather than exact numbers.

The species named for this experiment is Rattus norvegicus. As to the kind of experiment: Ratio concentration and the concentration of SFLLR-NH2 necessary for producing an equal relaxing effect on the isolated rat aortic rings. It counts as functional, Aorta.
Turning to `NC(N)=NCCCCCC(=O)N1CCN(C(=O)C(N)Cc2ccccc2)CC1` (configuration not stated), the Relative potency is listed as 32.8.

Turning to `N=C(N)NCCCCCC(=O)NCCCCNC(=O)Cc1ccccc1`, the Relative potency turned out to be 68.

As for `CC(C)C[C@H](NC(=O)[C@H](CC(C)C)NC(=O)[C@H](Cc1ccccc1)NC(=O)[C@@H](N)CO)C(=O)N[C@@H](CCCN=C(N)N)C(N)=O`, the Relative potency is reported as 1. With `N=C(N)NCCCCCC(=O)N1CCC(C(=O)NCc2ccc(F)cc2)CC1` the figure was 37.3; with `N=C(N)NCCCCCC(=O)NCCCCNC(=O)Cc1ccc(F)cc1`, 50.6.

`CC(C)C[C@@H]1NC(=O)[C@H](CC(C)C)NC(=O)[C@@H](Cc2ccccc2)NC(=O)[C@@H](N)CNC(=O)[C@@H](N)CCCCNC(=O)[C@H](CCCNC(=N)N)NC1=O`: the Relative potency is on record as >500. For `CC(C)C[C@@H]1NC(=O)[C@H](CC(C)C)NC(=O)[C@H](Cc2ccccc2)NC(=O)[C@@H](N)CNC(=O)[C@@H](N)CCCCNC(=O)[C@H](CCCN=C(N)N)NC1=O`, the Relative potency turned out to be 3.3.
